For ten compounds, Kd results are on record in patent US11584748B2, “Spirocyclic compounds” (priority 2018, dated 2023).

Each structure is given as a SMILES string.

hCereblon(M1-L442)_hDDB1(M1-H1140), sequence (Q96SW2 whole entry, looked up): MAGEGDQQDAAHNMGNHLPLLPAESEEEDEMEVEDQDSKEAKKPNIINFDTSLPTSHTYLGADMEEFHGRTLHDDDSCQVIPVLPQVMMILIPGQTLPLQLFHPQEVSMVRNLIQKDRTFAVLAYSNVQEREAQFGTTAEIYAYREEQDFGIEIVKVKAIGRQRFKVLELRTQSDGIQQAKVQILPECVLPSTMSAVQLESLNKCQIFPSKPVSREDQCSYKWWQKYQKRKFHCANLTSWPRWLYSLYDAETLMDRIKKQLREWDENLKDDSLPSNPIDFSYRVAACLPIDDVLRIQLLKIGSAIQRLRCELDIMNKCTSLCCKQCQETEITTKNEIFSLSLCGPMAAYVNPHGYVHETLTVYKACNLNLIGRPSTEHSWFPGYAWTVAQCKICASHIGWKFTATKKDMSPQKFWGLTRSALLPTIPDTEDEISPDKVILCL
hCereblon(M1-L442)_hDDB1(M1-H1140), sequence (Q16531 whole entry partner, looked up): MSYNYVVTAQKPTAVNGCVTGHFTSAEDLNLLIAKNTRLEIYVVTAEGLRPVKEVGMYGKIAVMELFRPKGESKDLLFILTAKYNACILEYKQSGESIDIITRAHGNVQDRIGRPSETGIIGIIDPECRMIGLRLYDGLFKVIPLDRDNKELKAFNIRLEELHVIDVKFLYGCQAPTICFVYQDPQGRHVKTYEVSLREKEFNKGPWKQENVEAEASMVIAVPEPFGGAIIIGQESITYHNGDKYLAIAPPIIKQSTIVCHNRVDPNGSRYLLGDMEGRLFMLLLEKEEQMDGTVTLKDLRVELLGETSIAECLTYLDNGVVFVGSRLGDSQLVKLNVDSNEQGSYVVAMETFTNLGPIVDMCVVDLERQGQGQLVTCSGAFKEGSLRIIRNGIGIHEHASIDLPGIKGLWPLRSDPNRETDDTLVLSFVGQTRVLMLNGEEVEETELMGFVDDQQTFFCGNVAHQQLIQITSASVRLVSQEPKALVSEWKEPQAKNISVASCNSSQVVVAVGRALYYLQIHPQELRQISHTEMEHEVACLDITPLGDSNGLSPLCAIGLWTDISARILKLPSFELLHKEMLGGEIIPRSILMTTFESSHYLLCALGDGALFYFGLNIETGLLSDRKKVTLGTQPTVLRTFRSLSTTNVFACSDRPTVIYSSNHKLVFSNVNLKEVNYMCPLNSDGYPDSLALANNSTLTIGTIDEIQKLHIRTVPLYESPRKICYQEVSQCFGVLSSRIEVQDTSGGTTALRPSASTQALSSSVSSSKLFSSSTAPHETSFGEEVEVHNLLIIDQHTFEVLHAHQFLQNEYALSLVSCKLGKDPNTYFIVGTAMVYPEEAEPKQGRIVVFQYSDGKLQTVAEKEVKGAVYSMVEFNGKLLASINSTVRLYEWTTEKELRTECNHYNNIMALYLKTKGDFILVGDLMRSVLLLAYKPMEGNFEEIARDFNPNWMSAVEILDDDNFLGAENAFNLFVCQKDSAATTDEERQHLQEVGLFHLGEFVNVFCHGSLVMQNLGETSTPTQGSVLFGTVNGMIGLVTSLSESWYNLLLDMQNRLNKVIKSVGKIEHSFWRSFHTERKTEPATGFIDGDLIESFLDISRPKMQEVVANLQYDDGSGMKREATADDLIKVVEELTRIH

This test addresses hCereblon(M1-L442)_hDDB1(M1-H1140) (Homo sapiens (Human), UniProt Q96SW2). In words: Fluorescence direct binding (tryptophan fluorescence titration). The note with it: 20° C., excitation 280 nm, emission 340 nm, 50 mM Hepes 7.4 200 mM NaCl; read-out: Fluorescence h-Cereblon_DDB1 Mean Kd_EQ.
Method: Fluorescence Direct Binding Protocol
Determination of the affinities of compounds to protein containing one or more tryptophan is measurable by monitoring the fluorescence emission in direct mode. The measurements, depending on the protein available amounts, were performed either manually in a cuvette on ISS-PCI photon counting spectrofluorometer or automatically in well plates on a fluorescence plate reader device. Fluorescence titrations were performed at 20° C. in the chosen binding assay buffer by using a defined constant protein concentration against ligand concentration variations. Small aliquots of known ligand concentration solubilized in DMSO were added and the fluorescence, excited at 280 nm, was recorded at 340 nm.
As for `O=C1NC(=O)C2(CCN(c3nc4ccccc4s3)CC2)N1` [Example 61, 8-(benzo[d]thiazol-2-yl)-1,3,8-triazaspiro[4.5]decane-2,4-dione], the Kd turned out to be 2 nM.

For `O=C1NC(=O)C2(CCN(C(=O)c3coc4ccccc34)CC2)N1` [Example 66, 8-(benzofuran-3-carbonyl)-1,3,8-triazaspiro[4.5] decane-2,4-dione], the Kd came out at 1 nM.

On to `O=C1NC(=O)C2(CCN(C(=O)c3cnn4ccccc34)CC2)N1` [Example 67, 8-(pyrazolo[1,5-a]pyridine-3-carbonyl)-1,3,8-triazaspiro[4.5] decane-2,4-dione], for which the Kd was less than 1 nM.

For the compound `O=C1NC(=O)C2(CCN(c3ccc([N+](=O)[O-])cn3)CC2)N1` [Example 69, 8-(5-nitropyridin-2-yl)-1,3,8-triazaspiro[4.5] decane-2,4-dione], the Kd was determined as 7 nM.

For the compound `O=C1CC2(CCN(c3ccc([N+](=O)[O-])cn3)CC2)C(=O)N1` [Example 70, 8-(5-nitropyridin-2-yl)-2,8-diazaspiro[4.5] decane-1,3-dione], the Kd stood at 23 nM.

As to `O=C1CC2(CCN(c3nc4ccccc4s3)CC2)C(=O)N1` [Example 71, 8-(benzo[d]thiazol-2-yl)-2,8-diazaspiro[4.5] decane-1,3-dione], the Kd is 2 nM.

Take `O=C1NC(=O)C2(CCN(c3ccc([N+](=O)[O-])cc3)CC2)N1` [Example 72, 8-(4-nitrophenyl)-1,3,8-triazaspiro[4.5] decane-2,4-dione]: the Kd is less than 1 nM.

On to `COC(=O)c1ccc(N2CCC3(CC2)CC(=O)NC3=O)nc1` [Example 74, methyl 6-(1,3-dioxo-2,8-diazaspiro[4.5]decan-8-yl)nicotinate], for which the Kd was determined as 11 nM.

Turning to `O=C1CC2(CCN(C(=O)c3ccccc3)CC2)C(=O)N1` [Example 75, 8-benzoyl-2,8-diazaspiro[4.5] decane-1,3-dione], the Kd is less than 1 nM.

For the compound `O=C1NC(=O)C2(CCN(C(=O)c3ccc4scnc4c3)CC2)N1` [Example 81, 8-(benzo[d]thiazole-5-carbonyl)-1,3,8-triazaspiro[4.5] decane-2,4-dione], the Kd turned out to be 6 nM.
